Assay results taken from article PMC6272341, “Synthesis and Biological Evaluation of N-Alkoxyphenyl-3-hydroxynaphthalene-2-carboxanilides” (Molecules, 2015).
In brackets after ≈: the same amount, converted by molar mass. Where two headings read alike, the source gives them in different places.

What was measured:
[1] = tested on: methicillin-resistant S. aureus clinical isolate MRSA 63718; experiment: In vitro antibacterial susceptibility testing, broth dilution micro-method (MIC); details: for MIC: Staphylococcus aureus, MRSA, read-out: MIC MRSA 63718, clinical isolate MRSA 63718
[2] = tested on: clinical isolate of M. avium subsp. paratuberculosis CIT03; experiment: In vitro antimycobacterial evaluation, alamarBlue (MIC); type: cell-based; details: Mycobacterium avium, 264 h, read-out: MIC MAP
[3] = tested on: methicillin-resistant S. aureus clinical isolate SA 630; experiment: In vitro antibacterial susceptibility testing, broth dilution micro-method (MIC); details: 24 h; for MIC: Staphylococcus aureus, MRSA, read-out: MIC MRSA SA 630, clinical isolate MRSA SA 630, 37 °C, MH broth
[4] = tested on: photosynthetic electron transport in spinach chloroplasts; experiment: Inhibition of photosynthetic electron transport (PET), DCPIP photoreduction (Hill reaction); type: biochemical, spinach (Spinacia oleracea L.)
Protocol: The PET inhibiting activity of the compounds was expressed by IC50 values. […] The aqueous solubility of the para-substituted compounds was limited; therefore IC50 values could not be determined due to precipitation of compounds during experiment. […]
Chloroplasts were prepared from spinach (Spinacia oleracea L.) according to Masarovicova and Kralova. The inhibition of photosynthetic electron transport (PET) in spinach chloroplasts was determined spectrophotometrically (Genesys 6, Thermo Scientific Corporation), using an artificial electron acceptor 2,6-dichlorophenol-indophenol (DCPIP) according to Kralova et al., and the rate of photosynthetic electron transport was monitored as a photoreduction of DCPIP. The measurements were carried out in phosphate buffer (20.0 mM, pH 7.2) containing sucrose (0.4 M), MgCl2 (5.0 mM) and NaCl (15.0 mM). The chlorophyll content was 30 mg/L in these experiments and the samples were irradiated (~100 W/m^2 with 10 cm distance) with a halogen lamp (250 W) using a 4 cm water filter to prevent warming of the samples (suspension temperature 22 °C). The studied compounds were dissolved in DMSO due to their limited aqueous solubility. The applied DMSO concentration (up to 4%) had negligible effect on the photochemical activity in isolated spinach chloroplasts (observed differences in DCPIP photoreduction due DMSO addition were within experimental error). The inhibitory efficiency of the studied compounds was expressed by IC50 values, i.e., by molar concentration of the compounds causing 50% decrease in DCPIP photoreduction relative to the untreated control. […] All reagents used in this study were of analytical grade and were purchased from Sigma.

[5] = tested on: M. tuberculosis H37Ra ATCC 25177; experiment: In vitro antimycobacterial evaluation, alamarBlue (MIC); type: cell-based; details: Mycobacterium tuberculosis, 168 h, read-out: MIC MT
Protocol: The evaluation of the in vitro antimycobacterial activity of the compounds was performed against M. tuberculosis H37Ra ATCC 25177 [25] and clinical isolate of M. avium subsp. paratuberculosis CIT03 [26], see Table 1. The activity of compounds was expressed as the minimum inhibitory concentration (MIC) that is defined for mycobacteria as a 90% or greater (IC90) reduction of growth in comparison with the control. The MIC/IC90 value is routinely and widely used in bacterial assays, being a standard detection limit according to the Clinical and Laboratory Standards Institute.
Mycobacterium tuberculosis H37Ra ATCC 25177 and well characterised clinical isolate M. avium subsp. paratuberculosis CIT03 were grown in Middlebrook broth (MB), supplemented with Oleic-Albumin-Dextrose-Catalase supplement (Becton Dickinson, Oxford, UK) and mycobactin J (2 μg/mL). Identification of these isolates was performed using biochemical and molecular protocols. At log phase growth, a culture sample (10 mL) was centrifuged at 15,000 rpm/20 min using a bench top centrifuge (Model CR 4-12, Jouan Inc., Winchester, VA, USA). Following removal of the supernatant, the pellet was washed in fresh Middlebrook 7H9GC broth and re-suspended in fresh supplemented MB (10 mL). The turbidity was adjusted to match McFarland standard No. 1 (3 × 10^8 cfu) with MB broth. A further 1:20 dilution of the culture was then performed in MB broth. The antimicrobial susceptibility of all three mycobacterial species was investigated in a 96-well plate format. In these experiments, sterile deionised water (300 µL) was added to all outer-perimeter wells of the plates to minimize evaporation of the medium in the test wells during incubation. Sample wells were composed of 100 µL of test compound dilution and 100 µL of the bacterial stock being tested against. Dilutions of each compound were prepared in duplicate. For all synthesized compounds, final concentrations ranged from 1000 μg/mL to 8 μg/mL. All compounds were prepared in DMSO and subsequent dilutions were made in supplemented MB. The plates were sealed with parafilm and incubated at 37 °C, for 7 days in the case of M. tuberculosis and 11 days in the case of M. avium subsp. paratuberculosis. Following incubation, a 10% addition of alamarBlue (AbD Serotec, Kidlington, UK) was mixed into each well and readings at 570 nm and 600 nm were taken, initially for background subtraction and subsequently after 24 h re-incubation. The background subtraction is necessary for strongly coloured compounds, where the colour may interfere with the interpretation of any colour change. For non-interfering compounds, a blue colour in the well was interpreted as an absence of growth and a pink colour was scored as growth. […] The MIC value is routinely and widely used in bacterial assays and is a standard detection limit according to the Clinical and Laboratory Standards Institute (CLSI,). Rifampicin (Sigma-Aldrich) was used as the standard as it is clinically used antimycobacterial drugs.

[6] = tested on: S. aureus ATCC 29213; experiment: In vitro antibacterial susceptibility testing, broth dilution micro-method (MIC); details: Staphylococcus aureus, ATCC29213, 24 h, read-out: MIC SA
[7] = tested on: Chla-protein complexes of photosystem II in spinach chloroplasts; experiment: Chlorophyll a fluorescence emission spectra in spinach chloroplasts; type: biochemical, spinach (Spinacia oleracea L.); details: 0, 102, 204, 408 and 612 μM; λex = 436 nm; band at 686 nm
Excerpt: The studied compounds affected chlorophyll a (Chla) fluorescence in spinach chloroplasts indicating their interactions with constituents of photosynthetic apparatus. […] The extent of perturbation of Chla-protein complexes in the thylakoid membrane is reflected in the sharpness of decreased fluorescence of Chla pigment. A similar decrease of Chla fluorescence in plant chloroplasts was also observed previously after treatment with ring-substituted 1-hydroxynaphthalene-2-carboxanilides, 2-hydroxynaphthalene-1-carboxanilides, 5-bromo- and 3,5-dibromo-2-hydroxy-N-phenyl-benzamides and ring-substituted 4-arylamino-7-chloroquinolinium chlorides.
The emission fluorescence spectra were recorded on a fluorescence spectrophotometer F-2000 (Hitachi, Tokyo, Japan) at room temperature (24 °C). The samples of chloroplast suspension (10 mg chlorophyll/L) with and without the studied inhibitor were excited at 436 nm, using an excitation slit 20 nm and emission slit 10 nm, and were kept in the dark for 2 min prior to the measurement. Due to low aqueous solubility the compounds were added to a chloroplast suspension in DMSO solution. The DMSO concentration in all samples was the same as in the control (10%).

[8] = tested on: methicillin-resistant S. aureus clinical isolate SA 3202; experiment: In vitro antibacterial susceptibility testing, broth dilution micro-method (MIC); details: 24 h; for MIC: Staphylococcus aureus, MRSA, read-out: MIC MRSA 3202, clinical isolate MRSA 3202, 37 °C, MH broth
[9] = tested on: human monocytic leukemia THP-1 cells; details: 24 h
[10] = tested on: M. tuberculosis H37Ra ATCC 25177; experiment: MTT assay of mycobacterial viability; type: cell-based; details: Mycobacterium tuberculosis, 168 h; at the lowest tested concentration 8 µg/mL, ca. 24 µM; 7 days
Protocol: The MTT assay is a well-characterized method of assessing cell growth through measurement of respiration. For the purpose of this assay, an MTT measured viability of M. tuberculosis H37Ra of less than 70% after exposure to the MIC of each tested compound was considered a positive result.
For the MTT assay, the outer wells of a 96-well plate were filled with 200 µL of sterile water, and the inner wells were filled with 100 µL of the tested compound at the concentration to be examined. Compounds were prepared as previously stated and diluted in Middlebrook media to achieve the desired concentration. Mycobacterium tuberculosis H37Ra ATCC 25177 was suspended in ODAC supplemented Middlebrook broth at a MacFarland standard of 1.0 and then diluted through a 1:20, using Middlebrook broth as a diluent. The diluted mycobacteria (100 µL) were added to each well containing the compound to be tested. A negative growth control was composed of 100 µL of DMSO and 100 µL of media, and the diluted mycobacteria in broth absent of inhibiting compounds were used as a positive growth control. All compounds and controls were prepared in triplicate. Plates were incubated at 37 °C for 7 days. After the incubation period, 10% well volume of MTT reagent was mixed into each well and incubated at 37 °C for 24 h. The reagent and media were then aspirated from the wells, to which 50 µL 99% isopropanol was then added, and plates were read at 570 nm. The absorbance readings from the cells, grown in the presence of the tested compounds, were compared with uninhibited cell growth (using DMSO as the blank) to determine the relative percent viability. The percent viability was determined through the MTT assay. The percent viability is calculated through comparison of a measured value against that of the uninhibited control: %viability = OD570E/OD570P × 100, where OD570E is the reading from the compound-exposed cells, while OD570P is the reading from the uninhibited cells (positive control). Cytotoxic potential is determined by a percent viability of <70%.

[11] = M. tuberculosis H37Ra, 7 days, 37 °C, alamarBlue, MIC/IC90
[12] = M. avium subsp. paratuberculosis CIT03, 11 days, 37 °C, alamarBlue, MIC/IC90

Row | SMILES | MIC ([1]; 24 h, 24 h, 37 °C, MH broth) [µM] | MIC [2] [µM] | MIC [3] [µM] | IC50 [4] [µM] | MIC [5, 11] [µM] | MIC [6] [µM] | chlorophyll a fluorescence emission [7] | MIC [8] [µM] | MIC [2, 12] [µM] | LD50 [9] [µM] | viability at 8 µg/mL [10] [%] | MIC [5] [µM] | activity fold higher than that of ampicillin ([1]; antibacterial activity against MRSA strains versus ampicillin) [fold] | MIC MRSA 63718 ([1]; clinical isolate MRSA 63718, 24 h, 37 °C, MH broth) [µM] | MIC MRSA SA 630 ([3]; clinical isolate MRSA SA 630, 37 °C, MH broth) [µM] | MIC MRSA 3202 ([8]; clinical isolate MRSA 3202, 37 °C, MH broth) [µM]
1 | CCOc1cccc(NC(=O)c2cc3ccccc3cc2O)c1 [Compound 4b, N-(3-Ethoxyphenyl)-3-hydroxynaphthalene-2-carboxamide] | 832 (≈ 256 µg/mL) | 813 (≈ 250 µg/mL) | 832 (≈ 256 µg/mL) | 4.5 | 813 (≈ 250 µg/mL) | 832 (≈ 256 µg/mL) | decreased intensity of the emission band at 686 nm | 832 (≈ 256 µg/mL) | – | – | – | – | – | – | – | –
2 | CCC(C)Oc1cccc(NC(=O)c2cc3ccccc3cc2O)c1 (stereo not drawn) [Compound 8b, N-[3-(But-2-yloxy)phenyl]-3-hydroxynaphthalene-2-carboxamide] | 763 (≈ 256 µg/mL) | – | 763 (≈ 256 µg/mL) | 8.3 | 23 (≈ 7.71 µg/mL) | 763 (≈ 256 µg/mL) | – | 763 (≈ 256 µg/mL) | 745 (≈ 250 µg/mL) | 2.7 ± 0.7 | 21.7 | – | – | – | – | –
3 | COc1cccc(NC(=O)c2cc3ccccc3cc2O)c1 [Compound 3b, 3-hydroxy-N-(3-methoxyphenyl)naphthalene-2-carboxamide] | 873 (≈ 256 µg/mL) | – | 873 (≈ 256 µg/mL) | 53.4 | 51 (≈ 15 µg/mL) | 873 (≈ 256 µg/mL) | – | 873 (≈ 256 µg/mL) | 426 (≈ 125 µg/mL) | >30 | – | – | – | – | – | –
4 | CC(C)Oc1cccc(NC(=O)c2cc3ccccc3cc2O)c1 [Compound 7b, 3-Hydroxy-N-[3-(prop-2-yloxy)phenyl]naphthalene-2-carboxamide] | 796 (≈ 256 µg/mL) | – | 796 (≈ 256 µg/mL) | 6.9 | – | 796 (≈ 256 µg/mL) | – | 796 (≈ 256 µg/mL) | 778 (≈ 250 µg/mL) | – | 10.7 | 24 (≈ 7.71 µg/mL) | – | – | – | –
5 | CCC(C)Oc1ccccc1NC(=O)c1cc2ccccc2cc1O (stereo not drawn) [Compound 8a, N-[2-(But-2-yloxy)phenyl]-3-hydroxynaphthalene-2-carboxamide] | 12 (≈ 4.02 µg/mL) | – | 12 (≈ 4.02 µg/mL) | 134 | 23 (≈ 7.71 µg/mL) | 5.9 (≈ 1.98 µg/mL) | – | 12 (≈ 4.02 µg/mL) | 89 (≈ 29.9 µg/mL) | – | 23.9 | – | ~4 | 11.9 (≈ 3.99 µg/mL) | 11.9 (≈ 3.99 µg/mL) | 11.9 (≈ 3.99 µg/mL)
